# Data as given in patent US4127572A, “Method of using 2(1H)-quinazolinethiones” (The Dow Chemical Company, priority 1978, dated 1978).
# Key:
# [1] = tested on: stress induced rise of serum corticosteroid levels; assay: Block of stress induced rise of serum corticosteroid levels in rats; type: in vivo; details: 10 mg/kg intraperitoneal, stressed male rats; values less than 1.0 indicative of activity
# Description: See British Medical Journal, 1971(2), p. 310-313. Corticosteroid levels were compared between stressed male rats pretreated with 10 mg/kg given by intraperitoneal injection to corticosteroid levels of stressed male rats pretreated with saline. The results were expressed as a ratio with values less than 1.0 indicative of activity. The compound 6-chloro-3,4-dihydro-4-hydroxy-3-(3-(4-morpholinyl)propyl)-4-phenyl-2(1H)- quinazolinethione (Example 12) gave a value of 0.12.
# [2] = tested on: norepinephrine uptake in synaptosome preparations; assay: Uptake of norepinephrine in rat forebrain synaptosome preparations; type: biochemical, rats; details: 10 μg/ml, 37° C., rat forebrain synaptosomes, versus saline control; low values indicate activity
# Description: (§1) Antidepressant activity may also be illustrated in vitro by measuring the uptake of the neurotransmittors norepinephrine and serotonin in synaptosome preparations prepared from the forebrains of rats. The synaptosome preparation is incubated at 37° C. with radioactive neurotransmittor and the test compound at a concentration of 10 μg/ml. The synaptosome are isolated and the uptake of labelled neurotransmittor measured by liquid scintillation spectrometry using standard techniques. Percent inhibiton of uptake is determined by comparing the radioactivity taken in the synaptosome preparation with that of a similarly incubated saline control. Low values indicate activity.
# [3] = tested on: serotonin uptake in synaptosome preparations; assay: Uptake of serotonin in rat forebrain synaptosome preparations; type: biochemical, rats; details: 10 μg/ml, 37° C., rat forebrain synaptosomes, versus saline control; low values indicate activity
# Description: as §1
# reserpine-induced ptosis = assay: Protection against reserpine-induced ptosis in mice; type: in vivo; details: 60 mg/kg intraperitoneal, 30 minutes before 2.5 mg/kg reserpine subcutaneous, graded after 45 minutes
# Description: A similar group of mice serving as controls were injected only with the carrier. After 30 minutes, both groups of mice were injected subcutaneously with 2.5 mg/kg of reserpine. […] Animals injected with the benzotriazepine compound were graded after 45 minutes on the following basis: no ptosis = 0, partial ptosis = 1, complete ptosis = 2.
compound,measurement,setting,value
"OC1(c2ccccc2)c2cc(Cl)ccc2NC(=S)N1CCCN1CCOCC1 (centres unmarked) [Example 12, 6-chloro-3,4-dihydro-4-hydroxy-3-(3-(4-morpholinyl)propyl)-4-phenyl-2(1H)-quinazolinethione]","ratio of corticosteroid levels, stressed rats pretreated with compound to stressed rats pretreated with saline",[1],0.12
CCN(CC)CCN1C(=S)Nc2ccc(Cl)cc2C1(O)c1ccccc1 (centres unmarked) [Example 8],norepinephrine uptake relative to saline control,[2],3%
same,inhibition of seratonin uptake,[3],7%
"6-chloro-3-(3-dimethylamino)propyl-3,4-dihydro-4-hydroxy-4-phenyl-2(1H)-quinazolinethione [Example 7]","sum of ptosis grades for the four test mice (no ptosis = 0, partial = 1, complete = 2; out of a possible 8)",reserpine-induced ptosis; controls 8,4
same,protection against reserpine-induced ptosis,reserpine-induced ptosis; four mice,50%
